In brackets after ≈: the same amount, converted by molar mass.
Key:
C. jejuni 81–176 = assay: Copper sulfate sensitivity dose–response assay in vitro (MIC/MBC); format: cell-based, Campylobacter jejuni; settings: for MBC / MIC: Campylobacter jejuni, 0.5 mM CuSO4, head displaced; for MBC: read-out: MBC, C. jejuni (Table S5); for MIC: read-out: MIC, C. jejuni (Table S4); for C. jejuni 81–176 in vitro MBC: minimal bactericidal concentration in presence of 0.5 mM CuSO4; for C. jejuni 81–176 in vitro MIC: minimal bacteriostatic concentration in presence of 0.5 mM CuSO4
Procedure: In total, 19 SMs were two-fold serially diluted to obtain a final SM concentration ranging from 6.25 to 0.012 μg/mL. C. jejuni 81–176 was then treated with a determined concentration of SM, as described in the copper sensitivity assay. […] The lowest bactericidal SM concentration was considered the MBC (no increase in OD600 over time and no viable cells were recovered on agar plate after challenge) (N = 3 replicates per SM). […] However, these SMs were two-fold serially diluted to obtain a final SM concentration ranging from 5 μg to 0.0625 μg for testing (N = two independent experiments with four technical replicate for each SM).

Caco-2 cells = assay: Cytotoxicity on Caco-2 colon epithelial cells (LDH assay); format: cell-based; settings: for cytotoxicity index on Caco-2 cells: 5 μg SM /ml, 24 h; for toxicity level to Caco-2 cells: 25 μg/mL or 50 μg/mL of SM for 24 h
Procedure: Cytotoxicity of the eight SMs (T1-T8) was tested on Caco-2 cells at 5, 25, and 50 μg/mL, as previously described ([Kumar et al., 2016]; [Deblais et al., 2019]). In brief, a 96-well plate seeded with approximately 1.4 × 10^5 Caco-2 cells/well in MEM medium was challenged with a final SM concentration of 5, 25, and 50 μg/mL. After 24 h of incubation at 37°C in a humidified 5% CO2 incubator, cytotoxic effects were determined using the PierceTM Lactate Dehydrogenase Cytotoxicity Assay Kit (Thermo Fisher Scientific). Cell death was measured based on the production of formazan (chromogenic dye), which can be read at OD570. Equal concentrations (5, 25, and 50 μg/mL) of kanamycin or chloramphenicol, 1% DMSO, and 10X lysis buffer were used as control. The cytotoxicity level was calculated according to the manufacturer’s instructions (N = two independent experiments with three technical replicate for each SM).

[1] = system: C. jejuni (mixture of five strains) in chicken ceca; assay: C. jejuni persistence in ceca of 5-week-old colonized chickens; format: in vivo; settings: for reduction in C. jejuni population per gram of cecum compared with the DMSO control group: 5-week-old chickens, oral twice a day for 5 days, approximately 0.225 mg of SM per kg body weight; for decrease of cecal C. jejuni colonization/load: 3 and 5-week-old chickens, 5-day treatment twice a day, 0.225 mg or 0.127 mg of SM per kg body weight
Procedure: Four SMs (T1, T2, T7, and T8) were selected from the initial list of eight SMs based on their low MBC in Caco2 cells (<5 μg SM/ml), low cytotoxicity indexes (<20% toxicity at 5 μg SM /ml), and their minimal effect on commensal bacterial species (less than two species inhibited by the SM out of the seven strains tested; Table 1). The antimicrobial efficacy of our SM was tested on 5-week-old chickens, to assess the clearance of C. jejuni load right before slaughter age. Overall, 5-week-old Campylobacter-free, i.e., specific pathogen-free [SPF] chickens were inoculated orally with a mixture of five C. jejuni strains (10^5 CFU/chicken, Supplementary Table S3). Rectal swabs were collected 1 day post-inoculation (DPI) to confirm C. jejuni colonization (CFU/g of feces) in birds. From 2 DPI to 7 DPI, groups of 4–5 chickens were treated orally twice a day with one of the four SMs (T1, T2, T7, or T8; approximately 0.225 mg of SM per kg body weight). Details of the treatment groups and the inoculum are shown in Supplementary Table S3.
(§1) For both experiments, C. jejuni colonized-chickens treated with 0.0001% DMSO and colonized chickens without additional carrier treatment (non-treated) were used as controls (n = 3–6 chicken per group). Details of the treatment groups and the inoculum are shown in Supplementary Table S3. Both 3 and 5-week-old chickens were euthanized at 7 DPI using carbon dioxide gas and ceca (cecal content and the pouch) and were aseptically collected. One of the ceca pairs was immediately stored at −80°C for microbiota studies. The other ceca were suspended in 1X PBS, homogenized, serially diluted, plated on MH media supplemented with Campylobacter Selective Supplement (CSS) agar plate, and incubated for 48 h at 42°C in microaerophilic conditions to determine C. jejuni load in the ceca (CFU/g of ceca).

[2] = system: C. jejuni (mixture of five strains) in chicken ceca; assay: C. jejuni persistence in ceca of 3-week-old colonized chickens; format: in vivo; settings: 3-week-old chickens, oral twice a day for 5 days, approximately 0.127 mg of SM per kg body weight
Procedure: The antimicrobial efficacy of T1, T7, and T8 was also tested on 3-week-old chickens to assess the clearance of C. jejuni load in chicken right after inoculation. Overall, 3-week-old Campylobacter-free chickens were inoculated orally with a mixture of five C. jejuni strains (10^5 CFU/chicken, Supplementary Table S3). Rectal swabs were collected 1 DPI to confirm the intestinal colonization of the birds by C. jejuni (CFU/g of feces). From 2 DPI, chickens were treated orally twice a day for 5 days (from 2 DPI to 7 DPI) with one of the SMs (T1, T7, or T8; approximately 0.127 mg of SM per kg body weight; n = 5–6 chicken per group). Details of the treatment groups and the inoculum are shown in Supplementary Table S3.
as §1, with “The other ceca were suspended in 1X PBS, homogenized, serially diluted, plated on MH media supplemented with Campylobacter Selective Supplement (CSS) agar plate, and incubated for 48 h at 42°C in microaerophilic conditions to determine C. jejuni load in the ceca (CFU/g of ceca).” left out

| SMILES | MBC (C. jejuni 81–176) [µg/mL] | MIC (C. jejuni 81–176) [µg/mL] | C. jejuni 81–176 in vitro MBC (C. jejuni 81–176) [µg/mL] | C. jejuni 81–176 in vitro MIC (C. jejuni 81–176) [µg/mL] | cytotoxicity index on Caco-2 cells (Caco-2 cells) [%] | toxicity level to Caco-2 cells (Caco-2 cells) [%] | reduction in C. jejuni population per gram of cecum compared with the DMSO control group [1] | decrease of cecal C. jejuni colonization/load [1] | reduction in C. jejuni population per gram of cecal contents compared with the DMSO-treated group [2] [log] |
| --- | --- | --- | --- | --- | --- | --- | --- | --- | --- |
| CCN(CC)/C(C)=N/C(=O)Nc1ccccc1 [T8] | 0.12 (≈ 0.514 µM) | 0.08 (≈ 0.343 µM) | 0.12 | 0.08 | < 20 | 33 | 0.5 log | – | – |
| CCCNC(=S)Nc1cc(OC)cc(OC)c1 [T1] | 0.62 (≈ 2.44 µM) | 0.19 (≈ 0.747 µM) | 0.62 | 0.19 | < 20 | 36 | did not reduce | – | – |
| CSc1ccccc1-c1nnc(NC(=O)Cc2ccccc2)o1 [T7] | 0.16 (≈ 0.492 µM) | 0.02 (≈ 0.0615 µM) | 0.16 | 0.02 | < 20 | – | 0.5 log | up to 1.2 log | 0.9 |
| CC(C)(C)NC(=S)NNc1c(Cl)cncc1Cl [T2] | 0.62 (≈ 2.11 µM) | 0.01 (≈ 0.0341 µM) | 0.62 | 0.01 | < 20 | – | 1.2 log | up to 1.2 log | – |
